What all share (type): in vivo
In assay [1] the test system is Vasopressin V2. Kind of assay: Vasopressin V2 agonist effects of test compounds in normal conscious water-loaded rats. The following applies: Sprague-Dawley (CD) rats, oral 1 mg/kg, urine collected for four hours; for Osmolality (% Increase): change in osmolality as percent of control; for Urine Volume (% decrease): vs. control.
The test system of assay [2] is Vasopressin V2. Kind of assay: Vasopressin V2 agonist effects of test compounds in normal conscious homozygous Brattleboro rats with central diabetes insipidus. The following applies: Brattleboro (BB) rats, oral 10 mg/kg, urine collected for six hours; for Osmolality (% Increase): change in osmolality as percent of control; for Urine Volume (% decrease): vs. control. The text has this: Vasopressin V2 Agonist Effects of Test Compounds in Normal Conscious Homozygous Brattleboro Rats with Central Diabetes Insipidus
Male or female homozygous Brattleboro rats (Harlan Sprague Dawley, Inc., Indianapolis, IN) of 250-350 g body weight were supplied with standard rodent diet (Purina Rodent Lab. Chow 5001) and water ad libitum. On the day of test, rats were placed individually into metabolic cages equipped with devices to separate the feces from the urine and containers for collection of urine. Test compound or reference agent was given at an oral dose of 1 to 10 mg/kg in a volume of 10 ml /kg. The vehicle used was 20% dimethylsulfoxide (DMSO) in 2.5% preboiled corn starch. During the test, rats were provided with water ad libitum. Urine was collected for six hours after dosing of the test compound. At the end of six hours, urine volume was measured. Urinary osmolality was determined using a Fiske One-Ten Osmometer (Fiske Associates, Norwood, MA, 02062) or an Advanced CRYOMATIC Osmometer, Model 3C2 (Advanced Instruments, Norwood, MA). Determinations of Na^+, K^+ and Cl^- ion were carried out using ion specific electrodes in a Beckman SYNCHRON EL-ISE Electrolyte System analyzer. This animal model was mainly used for evaluation of potency and duration of action of the active compounds.

For assay [3], the system named is Vasopressin V2. Kind of assay: Vasopressin V2 agonist effects of test compounds in normal conscious water-loaded rats. The following applies: Sprague-Dawley (CD) rats, oral 10 mg/kg, urine collected for four hours; for Osmolality (% Increase): change in osmolality as percent of control; for Urine Volume (% decrease): vs. control.

On to `Cc1ccn(-c2ccc(C(=O)N3Cc4cccn4Cc4ccccc43)c(C(F)(F)F)c2)n1` [Example 2, [4-(3-Methyl-pyrazol-1-yl)-2-trifluoromethyl-phenyl](5H,11H-pyrrolo[2,1-c]-[1,4]benzadiazepin-10-yl)-methanone], for which, in the assay with Vasopressin V2 [1], the “Osmolality (% Increase)” value is recorded as 306% (1 mg/kg) and the “Urine Volume (% decrease)” value is 80% (1 mg/kg).
In the case of `Cc1ccn(-c2ncc(C(=O)N3Cc4cccn4Cc4ccccc43)c(C(F)(F)F)n2)n1` [Example 20, [2-(3-Methyl-pyrazol-1-yl)-4-trifluoromethyl-pyrimidin-5-yl]-(5H,11H-pyrrolo[2,1-c][1,4]benzodiazepin-10-yl)-methanone], in the assay on Vasopressin V2 [1], the “Osmolality (% Increase)” value is 152% (1 mg/kg) and the “Urine Volume (% decrease)” value is on record as 25% (1 mg/kg).
For the compound `CC(=O)n1ccc(-c2ccc(C(=O)N3Cc4cccn4Cc4ccccc43)cc2)n1` [Example 30, 1-{3-[4-(5H,11H-Pyrrolo[2,1-c][1,4]benzodiazepine-10-carbonyl)-phenyl]-pyrazol-1-yl}-ethanone], in the assay with Vasopressin V2 [2], the “Osmolality (% Increase)” value was determined as 334% and the “Urine Volume (% decrease)” value is 81%.
For `O=C(c1ccc(-c2ccn(C(=O)c3cccs3)n2)cc1)N1Cc2cccn2Cc2ccccc21` [Example 34, (5H,11H-Pyrrolo[2,1-c][1,4]benzodiazepin-10-yl)-{4-[1-(thiophene-2-carbonyl)-1H-pyrazoly-3-yl]phenyl}-methanone] the same measures were 407% and 76%.
Consider `Cc1ccccc1C(=O)n1ccc(-c2ccc(C(=O)N3Cc4cccn4Cc4ccccc43)cc2)n1` [Example 36, {4-[1-(2-Methyl-benzoyl)-1H-pyrazol-3-yl]-phenyl}-(5H,11H-pyrrolo[2,1-c][1,4]benzodiazepin-10-yl)-methanone], for which, in the assay with Vasopressin V2 [2], the “Osmolality (% Increase)” value is 164% and the “Urine Volume (% decrease)” value is recorded as 66%.
In the case of `O=C(c1ccc(-c2ccn(C(=O)c3ccc(Cl)cc3Cl)n2)cc1)N1Cc2cccn2Cc2ccccc21` [Example 38, {4-[1-(2,4-Dichloro-benzoyl)-1H-pyrazol-3-yl]-phenyl}-(5H,11H-pyrrolo[2,1-c][1,4]benzodiazepin-10-yl)-methanone], in the assay on Vasopressin V2 [2], the “Osmolality (% Increase)” value was found to be 256% and the “Urine Volume (% decrease)” value is recorded as 66%.
In the case of `Cn1ncnc1-c1ccc(C(=O)N2Cc3cccn3Cc3ccccc32)cc1` [Example 49, [4-(2-Methyl-2H-[1,2,4]triazol-3-yl)-phenyl]-(5H,11H-pyrrolo[2,1-c][1,4]-benzodiazepin-10-yl)-methanone], in the assay on Vasopressin V2 [2], the “Osmolality (% Increase)” value is reported as 221% and the “Urine Volume (% decrease)” value came out at 74%.
On to `Cn1nccc1-c1ccc(C(=O)N2Cc3ccnn3Cc3ccccc32)cc1` [Example 120B, [4-(2-Methyl-1H-pyrazol-3-yl)phenyl](4H,10H-pyrazolo[5,1c][1,4]-benzodiazepin-5-yl) methanone], for which, in the assay on Vasopressin V2 [3], the “Osmolality (% Increase)” value was 272% and the “Urine Volume (% decrease)” value came to 67%.
Turning to `CC(=O)c1ccc(C(=O)N2Cc3cccn3Cc3ccccc32)c(Cl)c1` [Example 121, 1-[4-(5H,11H-pyrrolo[2,1-c][1,4]benzodiazepine-10-carbonyl)-3-chlorophenyl]-ethanone], in the assay on Vasopressin V2 [3], the “Osmolality (% Increase)” value is 155% and the “Urine Volume (% decrease)” value amounted to 22%.
For “[2-Chloro-4-(3-methyl-4-ethynyl-phenyl) (5H,11H-pyrrolo[2,1-c][1,4]-benzodiazepin-10-yl)-methanone [Example 123]” the same measures were 663% and 88%.

Source of the values: EP1000062B1, “TRICYCLIC VASOPRESSIN AGONISTS” (Wyeth, priority 1997, dated 1999).
